Reference: the OligoGym collection
Oligonucleotides are written 5' to 3', each unit as a sugar letter and its base; * is a phosphorothioate linkage, no mark a phosphodiester; rarer units and linkages stand in square brackets, end groups in braces. Plain capitals give the bases only. d = 2'-deoxy (DNA); r = 2'-OH (RNA)

Each substance was assayed against P2RX3 (assay: reporter assay of Huesken 2005). Settings: siRNA.
Further: test concentration or dose not given here.

Substance	normalised inhibition (eCFP-eYFP dual reporter) [%]
sense rArGrUrArCrArArArGrCrCrArArGrArArGrUrUdTdT / antisense rArArCrUrUrCrUrUrGrGrCrUrUrUrGrUrArCrUdGdG	99.5
sense rCrArArGrGrArUrUrCrUrGrCrCrCrArGrArGrAdTdT / antisense rUrCrUrCrUrGrGrGrCrArGrArArUrCrCrUrUrGdCdA	102
sense rGrArGrGrArGrArArArUrArCrCrGrCrUrGrUrGdTdT / antisense rCrArCrArGrCrGrGrUrArUrUrUrCrUrCrCrUrCdAdC	67.4
sense rArGrUrUrCrArGrCrUrUrCrUrGrArUrCrArUrCdTdT / antisense rGrArUrGrArUrCrArGrArArGrCrUrGrArArCrUdAdC	72.3
sense rCrCrArCrCrUrCrArGrGrGrCrArCrCrUrCrGrGdTdT / antisense rCrCrGrArGrGrUrGrCrCrCrUrGrArGrGrUrGrGdCdG	70.2
sense rUrUrUrGrCrCrArArArCrUrGrGrCrGrCrGrCrAdTdT / antisense rUrGrCrGrCrGrCrCrArGrUrUrUrGrGrCrArArAdAdT	37.3
sense rCrGrCrArCrCrCrUrCrCrUrGrArArGrGrCrUrUdTdT / antisense rArArGrCrCrUrUrCrArGrGrArGrGrGrUrGrCrGdGdT	67.9
sense rUrCrArCrUrArUrUrUrUrCrArUrCrArArGrArAdTdT / antisense rUrUrCrUrUrGrArUrGrArArArArUrArGrUrGrAdAdG	79.6
sense rGrCrGrGrArGrArArGrCrArGrUrCrCrArCrCrGdTdT / antisense rCrGrGrUrGrGrArCrUrGrCrUrUrCrUrCrCrGrCdTdG	81.8
sense rGrArUrUrCrUrGrCrCrCrArGrArGrArGrUrGrAdTdT / antisense rUrCrArCrUrCrUrCrUrGrGrGrCrArGrArArUrCdCdT	96.9
sense rArGrArCrUrArCrGrCrUrGrArArArArUrCrGrCdTdT / antisense rGrCrGrArUrUrUrUrCrArGrCrGrUrArGrUrCrUdCdA	77.1
sense rCrUrGrArArArArUrCrArGrArUrGrCrArArGrGdTdT / antisense rCrCrUrUrGrCrArUrCrUrGrArUrUrUrUrCrArGdTdA	85.5
sense rCrCrArArGrArUrGrArUrUrGrUrUrArCrUrGrAdTdT / antisense rUrCrArGrUrArArCrArArUrCrArUrCrUrUrGrGdTdG	98.9
sense rUrUrCrArGrCrUrUrCrUrGrArUrCrArUrCrUrCdTdT / antisense rGrArGrArUrGrArUrCrArGrArArGrCrUrGrArAdCdT	46.8
sense rGrCrUrCrCrGrGrArCrUrCrUrArCrGrCrCrArAdTdT / antisense rUrUrGrGrCrGrUrArGrArGrUrCrCrGrGrArGrCdCdC	87.3
sense rCrUrGrGrArCrCrArUrCrGrGrGrArUrCrArUrCdTdT / antisense rGrArUrGrArUrCrCrCrGrArUrGrGrUrCrCrArGdCdT	60.7
sense rUrGrCrArUrCrCrCrCrArArArUrArCrUrCrCrUdTdT / antisense rArGrGrArGrUrArUrUrUrGrGrGrGrArUrGrCrAdCdT	56.3
sense rArCrCrCrGrGrCrUrCrGrArCrArGrCrGrUrUrUdTdT / antisense rArArArCrGrCrUrGrUrCrGrArGrCrCrGrGrGrUdGdA	94.1
sense rGrArCrUrUrGrGrArCrArArGrGrCrCrUrGrGrGdTdT / antisense rCrCrCrArGrGrCrCrUrUrGrUrCrCrArArGrUrCdGdC	93

Substance	normalised inhibition (eCFP-eYFP dual reporter) [%]
sense rUrCrCrUrGrCrUrCrArArCrUrUrCrCrUrCrArAdTdT / antisense rUrUrGrArGrGrArArGrUrUrGrArGrCrArGrGrAdTdG	90.3
sense rArCrCrArUrCrGrGrGrArUrCrArUrCrArArCrCdTdT / antisense rGrGrUrUrGrArUrGrArUrCrCrCrGrArUrGrGrUdCdC	25.1
sense rGrCrArCrCrUrCrGrGrUrCrUrUrUrGrUrCrArUdTdT / antisense rArUrGrArCrArArArGrArCrCrGrArGrGrUrGrCdCdC	85.9
sense rUrCrArGrArCrArGrCrCrArGrUrGrCrGrGrGrCdTdT / antisense rGrCrCrCrGrCrArCrUrGrGrCrUrGrUrCrUrGrAdTdA	23.8
sense rUrArGrGrGrUrGrGrGrUrUrUrUrCrUrUrGrCrAdTdT / antisense rUrGrCrArArGrArArArArCrCrCrArCrCrCrUrAdCdA	82.2
sense rCrUrGrArUrUrArCrGrUrGrArCrGrCrCrArCrCdTdT / antisense rGrGrUrGrGrCrGrUrCrArCrGrUrArArUrCrArGdAdC	50
sense rUrCrCrUrCrArCrUrGrGrCrCrGrCrUrGrCrGrUdTdT / antisense rArCrGrCrArGrCrGrGrCrCrArGrUrGrArGrGrAdTdC	16.4
sense rArUrGrUrGrUrCrUrGrArUrUrArCrGrUrGrArCdTdT / antisense rGrUrCrArCrGrUrArArUrCrArGrArCrArCrArUdCdC	33.9
sense rCrGrUrGrArArCrUrArCrArGrCrUrCrUrGrUrGdTdT / antisense rCrArCrArGrArGrCrUrGrUrArGrUrUrCrArCrGdCdA	42
sense rArCrCrArGrUrArCrArArArGrCrCrArArGrArAdTdT / antisense rUrUrCrUrUrGrGrCrUrUrUrGrUrArCrUrGrGrUdCdG	82.9
sense rCrCrArCrArGrCrGrGrArGrArArGrCrArGrUrCdTdT / antisense rGrArCrUrGrCrUrUrCrUrCrCrGrCrUrGrUrGrGdTdC	62.7
sense rCrUrCrUrGrUrGrCrUrCrCrGrGrArCrCrUrGrUdTdT / antisense rArCrArGrGrUrCrCrGrGrArGrCrArCrArGrArGdCdT	41.9
sense rUrCrUrUrGrCrGrGrGrUrArGrGrGrGrArCrGrUdTdT / antisense rArCrGrUrCrCrCrCrUrArCrCrCrGrCrArArGrAdTdG	75.9
sense rUrUrGrUrUrArCrUrGrArArArArUrCrArGrArUdTdT / antisense rArUrCrUrGrArUrUrUrUrCrArGrUrArArCrArAdTdC	54.1
sense rGrUrArCrCrGrCrArCrCrCrUrCrCrUrGrArArGdTdT / antisense rCrUrUrCrArGrGrArGrGrGrUrGrCrGrGrUrArCdTdC	37.1
sense rGrGrUrGrArArUrGrArGrArCrUrArCrGrCrUrGdTdT / antisense rCrArGrCrGrUrArGrUrCrUrCrArUrUrCrArCrCdTdC	87.3
sense rGrGrUrArCrGrGrGrArCrArCrArGrCrCrArUrUdTdT / antisense rArArUrGrGrCrUrGrUrGrUrCrCrCrGrUrArCrCdTdG	61.2
sense rArCrUrCrCrUrUrCrArCrCrCrGrGrCrUrCrGrAdTdT / antisense rUrCrGrArGrCrCrGrGrGrUrGrArArGrGrArGrUdAdT	80.2
